pIC50: −log10 of the molar value.
Legend:
5-lipoxygenase (5-LO) = molecular target: T1, 5-lipoxygenase (5-LO) (Homo sapiens, UniProt P09917); assay: 5-LO product biosynthesis; assay type: cell-based
T1 sequence (P09917 1-674): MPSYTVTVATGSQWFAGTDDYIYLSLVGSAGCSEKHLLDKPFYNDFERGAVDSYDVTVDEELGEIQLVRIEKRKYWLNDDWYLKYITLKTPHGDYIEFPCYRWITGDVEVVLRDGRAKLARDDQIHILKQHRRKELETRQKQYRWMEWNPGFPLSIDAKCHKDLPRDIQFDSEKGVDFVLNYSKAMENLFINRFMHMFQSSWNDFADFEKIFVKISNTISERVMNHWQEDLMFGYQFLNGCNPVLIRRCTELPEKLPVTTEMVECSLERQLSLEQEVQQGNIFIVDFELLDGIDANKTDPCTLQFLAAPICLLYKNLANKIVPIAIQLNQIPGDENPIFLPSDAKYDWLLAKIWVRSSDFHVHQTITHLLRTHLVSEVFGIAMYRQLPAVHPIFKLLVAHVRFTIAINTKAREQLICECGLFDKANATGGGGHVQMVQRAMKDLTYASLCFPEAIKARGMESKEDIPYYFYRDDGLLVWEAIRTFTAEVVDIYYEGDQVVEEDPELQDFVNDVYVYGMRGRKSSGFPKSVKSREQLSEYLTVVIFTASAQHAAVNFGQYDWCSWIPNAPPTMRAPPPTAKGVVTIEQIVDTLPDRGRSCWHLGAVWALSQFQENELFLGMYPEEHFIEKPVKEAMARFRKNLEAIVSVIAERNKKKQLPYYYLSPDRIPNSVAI
T1 sequence (P20292 1-161 partner): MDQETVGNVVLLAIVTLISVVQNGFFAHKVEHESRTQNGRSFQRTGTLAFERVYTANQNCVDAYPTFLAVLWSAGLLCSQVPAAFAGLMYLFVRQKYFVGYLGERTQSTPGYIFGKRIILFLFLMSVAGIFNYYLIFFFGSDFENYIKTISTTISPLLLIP

12-lipoxygenase (12-LO) = 12-lipoxygenase (12-LO) (Homo sapiens, UniProt P18054); assay: 12-HETE biosynthesis; assay type: cell-based
Chain of 12-lipoxygenase (12-LO) (P18054 whole entry): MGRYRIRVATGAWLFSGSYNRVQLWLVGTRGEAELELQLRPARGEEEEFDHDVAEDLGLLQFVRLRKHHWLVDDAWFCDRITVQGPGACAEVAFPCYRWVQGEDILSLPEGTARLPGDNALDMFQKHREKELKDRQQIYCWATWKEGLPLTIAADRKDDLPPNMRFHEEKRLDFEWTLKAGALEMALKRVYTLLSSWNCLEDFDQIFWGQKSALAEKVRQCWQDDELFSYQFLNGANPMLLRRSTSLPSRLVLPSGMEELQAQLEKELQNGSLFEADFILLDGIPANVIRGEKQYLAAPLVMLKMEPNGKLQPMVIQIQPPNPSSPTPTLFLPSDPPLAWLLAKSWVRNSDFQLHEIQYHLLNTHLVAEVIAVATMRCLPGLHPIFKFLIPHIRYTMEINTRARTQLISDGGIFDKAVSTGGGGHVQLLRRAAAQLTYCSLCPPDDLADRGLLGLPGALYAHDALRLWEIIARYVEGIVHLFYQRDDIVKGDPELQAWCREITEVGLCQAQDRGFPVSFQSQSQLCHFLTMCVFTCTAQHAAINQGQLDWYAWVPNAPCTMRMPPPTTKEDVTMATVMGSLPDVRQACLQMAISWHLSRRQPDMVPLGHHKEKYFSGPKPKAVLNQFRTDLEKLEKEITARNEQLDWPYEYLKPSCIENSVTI

SMILES: O=C(/C=C/c1ccc(O)c(O)c1)OCCc1ccccc1 [compound 1, Caffeic acid phenethyl ester]
- pIC50 (5-lipoxygenase (5-LO)): 6.00
- % remaining at 1 μM (12-lipoxygenase (12-LO)): 74.3
